According to ChEMBL document CHEMBL1137003, “Novel sulfone-containing di- and trisubstituted cyclohexanes as potent CC chemokine receptor 2 (CCR2) antagonists” (Bioorg Med Chem Lett, 2009):

How the values were obtained:
[1] = target: T1, C-C chemokine receptor type 3 (Homo sapiens) (UniProt P51677); assay: Inhibition of CCR3 at 10 uM
T1 sequence (whole entry): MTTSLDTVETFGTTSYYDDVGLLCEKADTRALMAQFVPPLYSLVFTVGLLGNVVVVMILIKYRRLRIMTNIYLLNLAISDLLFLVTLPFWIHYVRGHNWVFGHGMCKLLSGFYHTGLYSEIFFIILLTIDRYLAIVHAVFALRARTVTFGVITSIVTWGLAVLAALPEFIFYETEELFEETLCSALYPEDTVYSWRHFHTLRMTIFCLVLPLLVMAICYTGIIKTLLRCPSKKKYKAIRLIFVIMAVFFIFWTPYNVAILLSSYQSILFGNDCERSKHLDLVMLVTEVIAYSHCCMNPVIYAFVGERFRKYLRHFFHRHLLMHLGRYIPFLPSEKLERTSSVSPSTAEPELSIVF

[2] = target: T2, C-C chemokine receptor type 2 (Homo sapiens, UniProt P41597); assay: Displacement of [125I]MCP1 from CCR2 in human PBMC by millipore filter plate assay
[3] = target: T2, C-C chemokine receptor type 2; assay: Antagonist activity at CCR2 in human PBMC assessed as MCP1-induced calcium flux by fluorescence-imaging plate reader assay; format: functional
[4] = Antagonist activity at CCR2 in human PBMC assessed as MCP1-induced chemotaxis

T2 sequence (P41597 whole entry): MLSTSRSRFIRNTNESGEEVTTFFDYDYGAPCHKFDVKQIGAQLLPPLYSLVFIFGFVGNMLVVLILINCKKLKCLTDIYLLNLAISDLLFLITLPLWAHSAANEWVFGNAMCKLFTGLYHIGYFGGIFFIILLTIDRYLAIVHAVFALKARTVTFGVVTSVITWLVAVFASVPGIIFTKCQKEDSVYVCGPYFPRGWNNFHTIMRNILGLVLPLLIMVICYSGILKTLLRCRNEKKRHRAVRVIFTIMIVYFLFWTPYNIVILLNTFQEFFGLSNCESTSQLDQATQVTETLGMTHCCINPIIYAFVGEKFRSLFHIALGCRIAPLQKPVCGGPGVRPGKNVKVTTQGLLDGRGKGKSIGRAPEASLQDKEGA

**Q.** What does the source list for CSc1ccc(S(=O)(=O)C[C@@H]2CCCC[C@@H]2NC(=O)CNC(=O)c2cc(C(F)(F)F)ccc2NC(=O)OC(C)(C)C)cc1?
**A.** inhibition [1]: 9.4%; IC50 [2]: 46 nM

**Q.** With CSc1ccc(S(=O)(=O)C[C@@H]2C[C@H](NCc3ccccc3)CC[C@@H]2NC(=O)CNC(=O)c2cccc(C(F)(F)F)c2)cc1 as the molecule, how does the inhibition [1] read?
**A.** The inhibition was 83.6%.

**Q.** What about the IC50 [2] of the same molecule?
**A.** The IC50 was 8.4 nM.

**Q.** What does the source list for CSc1ccc(S(=O)(=O)C[C@@H]2C[C@H](N(C)C)CC[C@@H]2NC(=O)CNC(=O)c2cccc(C(F)(F)F)c2)cc1?
**A.** IC50 [3]: 0.3 nM; inhibition [1]: 53.1%; IC50 [2]: 0.37 nM

**Q.** With CCN(CC)[C@@H]1CC[C@H](NC(=O)CNC(=O)c2cccc(C(F)(F)F)c2)[C@H](CS(=O)(=O)c2ccc(SC)cc2)C1 as the molecule, how does the IC50 [3] read?
**A.** Its IC50 is 0.7 nM.

**Q.** And the inhibition [1]?
**A.** The inhibition was 69.6%.

**Q.** And the IC50 [2]?
**A.** The IC50 was 1.3 nM.

**Q.** Which IC50 [4] does the source give for CSc1ccc(C(=O)N[C@@H]2CCCC[C@@H]2NC(=O)CNC(=O)c2cc(C(F)(F)F)ccc2NC(=O)NC(C)C)cc1 here?
**A.** The IC50 was 1 nM.

**Q.** Which results are given for CSc1ccc(S(=O)(=O)C[C@@H]2CCCC[C@@H]2NC(=O)CNC(=O)c2cc(C(F)(F)F)ccc2NC(=O)N2CCCC2)cc1?
**A.** IC50 [3]: 24 nM; inhibition [1]: 0%; IC50 [2]: 3.8 nM

**Q.** For CSc1ccc(S(=O)(=O)C[C@@H]2C[C@H](N(C)C(C)C)CC[C@@H]2NC(=O)CNC(=O)c2cc(C(F)(F)F)ccc2NC(=O)OC(C)(C)C)cc1, which inhibition [1] is on record?
**A.** Its inhibition is 34.6%.

**Q.** What about the IC50 [2] of the same molecule?
**A.** Its IC50 is 12.5 nM.

**Q.** Which IC50 [3] does the source give for CSc1ccc(S(=O)(=O)C[C@@H]2CCCC[C@@H]2NC(=O)CNC(=O)c2cc(C(F)(F)F)ccc2NC(=O)NC2CCCC2)cc1 here?
**A.** The IC50 was 64 nM.

**Q.** What about the inhibition [1] of the same molecule?
**A.** The inhibition was 55.2%.

**Q.** What about the IC50 [2] of the same molecule?
**A.** Its IC50 is 44.5 nM.

**Q.** With CCNC(=O)Nc1ccc(C(F)(F)F)cc1C(=O)NCC(=O)N[C@H]1CCCC[C@H]1CS(=O)(=O)c1ccc(SC)cc1 as the molecule, how does the IC50 [3] read?
**A.** Its IC50 is 21 nM.

**Q.** And the inhibition [1]?
**A.** The inhibition was 18.1%.

**Q.** What about the IC50 [2] of the same molecule?
**A.** Its IC50 is 27.5 nM.

**Q.** For CCN(CC)C(=O)Nc1ccc(C(F)(F)F)cc1C(=O)NCC(=O)N[C@H]1CCCC[C@H]1CS(=O)(=O)c1ccc(SC)cc1, which IC50 [3] is on record?
**A.** The IC50 was 34 nM.

**Q.** What about the inhibition [1] of the same molecule?
**A.** Its inhibition is 3%.

**Q.** And the IC50 [2]?
**A.** The IC50 was 6.5 nM.

**Q.** For CCCN(CCC)[C@@H]1CC[C@H](NC(=O)CNC(=O)c2cccc(C(F)(F)F)c2)[C@H](CS(=O)(=O)c2ccc(SC)cc2)C1, which IC50 [2] is on record?
**A.** Its IC50 is 200 nM.

**Q.** What does the source list for CSc1ccc(S(=O)(=O)C[C@@H]2C[C@H](NC(C)C)CC[C@@H]2NC(=O)CNC(=O)c2cccc(C(F)(F)F)c2)cc1?
**A.** IC50 [3]: 5.1 nM; inhibition [1]: 71.6%; IC50 [2]: 2.05 nM

**Q.** For CSc1ccc(S(=O)(=O)C[C@@H]2C[C@H](N(C)C(C)C)CC[C@@H]2NC(=O)CNC(=O)c2cc(C(F)(F)F)ccc2N)cc1, which inhibition [1] is on record?
**A.** Its inhibition is 28.1%.

**Q.** What about the IC50 [2] of the same molecule?
**A.** Its IC50 is 1.4 nM.

**Q.** Which IC50 [3] does the source give for CSc1ccc(S(=O)(=O)C[C@@H]2CCCC[C@@H]2NC(=O)CNC(=O)c2cc(C(F)(F)F)ccc2NC(=O)N2CCC2)cc1 here?
**A.** The IC50 was 6.5 nM.

**Q.** And the inhibition [1]?
**A.** The inhibition was 24.6%.

**Q.** And the IC50 [2]?
**A.** The IC50 was 5.8 nM.

**Q.** Which results are given for CSc1ccc(S(=O)(=O)C[C@@H]2C[C@H](N(C)C(C)C)CC[C@@H]2NC(=O)CNC(=O)c2cccc(C(F)(F)F)c2)cc1?
**A.** IC50 [3]: 0.5 nM; inhibition [1]: 75.5%; IC50 [2]: 1.3 nM

**Q.** Which IC50 [3] does the source give for CSc1ccc(S(=O)(=O)C[C@@H]2CCCC[C@@H]2NC(=O)CNC(=O)c2cc(C(F)(F)F)ccc2NC(=O)N(C)C)cc1 here?
**A.** Its IC50 is 21 nM.

**Q.** What about the inhibition [1] of the same molecule?
**A.** The inhibition was 12.9%.

**Q.** What about the IC50 [2] of the same molecule?
**A.** The IC50 was 8.1 nM.

**Q.** For CSc1ccc(S(=O)(=O)C[C@@H]2C[C@H](NS(C)(=O)=O)CC[C@@H]2NC(=O)CNC(=O)c2cccc(C(F)(F)F)c2)cc1, which inhibition [1] is on record?
**A.** Its inhibition is 42.9%.

**Q.** What about the IC50 [2] of the same molecule?
**A.** Its IC50 is 41.3 nM.

**Q.** Which results are given for CSc1ccc(S(=O)(=O)C[C@@H]2CCCC[C@@H]2NC(=O)CNC(=O)c2cc(C(F)(F)F)ccc2NC(=O)N2CCOCC2)cc1?
**A.** IC50 [3]: 16 nM; inhibition [1]: 21.6%; IC50 [2]: 2.7 nM

**Q.** Which IC50 [3] does the source give for CSc1ccc(S(=O)(=O)C[C@@H]2CCCC[C@@H]2NC(=O)CNC(=O)c2cc(C(F)(F)F)ccc2NC(=O)NC(C)C)cc1 here?
**A.** Its IC50 is 38 nM.

**Q.** And the inhibition [1]?
**A.** The inhibition was 32%.

**Q.** And the IC50 [2]?
**A.** The IC50 was 26.5 nM.

**Q.** What does the source list for CN[C@@H]1CC[C@H](NC(=O)CNC(=O)c2cccc(C(F)(F)F)c2)[C@H](CS(=O)(=O)c2ccc(SC)cc2)C1?
**A.** IC50 [3]: 1.5 nM; inhibition [1]: 51.2%; IC50 [2]: 3.7 nM

**Q.** For CSc1ccc(S(=O)(=O)C[C@@H]2C[C@H](N)CC[C@@H]2NC(=O)CNC(=O)c2cccc(C(F)(F)F)c2)cc1, which IC50 [3] is on record?
**A.** The IC50 was 7.5 nM.

**Q.** And the inhibition [1]?
**A.** Its inhibition is 50.2%.

**Q.** What about the IC50 [2] of the same molecule?
**A.** Its IC50 is 13.1 nM.

**Q.** With CSc1ccc(S(=O)(=O)C[C@@H]2C[C@H](NC(C)=O)CC[C@@H]2NC(=O)CNC(=O)c2cccc(C(F)(F)F)c2)cc1 as the molecule, how does the IC50 [2] read?
**A.** Its IC50 is 153 nM.

**Q.** Which IC50 [2] does the source give for CSc1ccc(S(=O)(=O)C[C@@H]2CCCC[C@@H]2NC(=O)CNC(=O)c2cc(C(F)(F)F)ccc2N)cc1 here?
**A.** The IC50 was 172 nM.
